# Assay results as given in patent EP0476853B1, “Triphenodioxazine dyes” (ZENECA LIMITED, priority 1990, dated 1992).
# Experiment: Solubility of the dyebase in aqueous acid solvent systems
# Assay type: physicochemical
# Protocol: The solubility of the product from step (a) was then determined in the following aqueous solvent systems.
structure (smiles),measurement,setting,value
NCCNc1ccc2c(c1)Oc1c(Cl)c3c(c(Cl)c1=N2)Oc1cc(NCCN)ccc1N=3 [Formula (3)],Solubility (% w/w),solvent: 25% formic acid (aqueous),5.3 % w/w
same,Solubility (% w/w),solvent: 25% lactic acid (aqueous),4.8 % w/w
same,solubility,solvent: 50% aqueous acetic acid (comparison),2.52 % w/w
same,Solubility (% w/w),solvent: 50% formic acid (aqueous),7.5 % w/w
same,Solubility (% w/w),solvent: 50% lactic acid (aqueous),4.9 % w/w
same,Solubility (% w/w),solvent: 85% formic acid (aqueous),24.7 % w/w
same,Solubility (% w/w),solvent: 88% lactic acid (aqueous),4.8 % w/w
